The assay concerns the target T1, human MPO (Homo sapiens, UniProt P05164).
T1 sequence (P05164 49-745): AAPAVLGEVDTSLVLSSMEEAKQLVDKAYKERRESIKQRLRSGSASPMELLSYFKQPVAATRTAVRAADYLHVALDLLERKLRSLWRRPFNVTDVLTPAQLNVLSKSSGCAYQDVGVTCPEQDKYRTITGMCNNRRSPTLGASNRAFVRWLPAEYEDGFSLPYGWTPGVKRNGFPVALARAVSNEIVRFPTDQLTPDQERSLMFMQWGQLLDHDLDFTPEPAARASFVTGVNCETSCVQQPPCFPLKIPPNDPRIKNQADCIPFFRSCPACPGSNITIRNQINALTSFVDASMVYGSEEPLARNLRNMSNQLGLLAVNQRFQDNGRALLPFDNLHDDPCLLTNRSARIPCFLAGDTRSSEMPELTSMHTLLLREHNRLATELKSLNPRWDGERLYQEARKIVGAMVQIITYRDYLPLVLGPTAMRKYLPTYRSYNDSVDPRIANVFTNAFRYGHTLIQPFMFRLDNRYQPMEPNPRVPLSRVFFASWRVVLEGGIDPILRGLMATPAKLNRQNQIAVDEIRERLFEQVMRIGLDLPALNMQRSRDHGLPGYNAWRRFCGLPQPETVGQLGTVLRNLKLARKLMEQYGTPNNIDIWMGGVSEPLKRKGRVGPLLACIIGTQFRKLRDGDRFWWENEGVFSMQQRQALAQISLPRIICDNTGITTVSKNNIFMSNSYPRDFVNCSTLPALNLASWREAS
Kind of assay: MPO inhibition screen (TMB oxidation, absorbance). Format: biochemical. To be noted: in the presence of tyrosine (final 8 μM); human MPO 2.5 nM; H2O2 100 μM. As for the experimental part: Methods for the determination of MPO inhibitory activity are disclosed in patent application WO 02/090575. The pharmacological activity of compounds according to the invention was tested in the following screen in which the compounds were either tested alone or in the presence of added tyrosine:
Assay buffer: 20 mM sodium/potassium phosphate buffer pH 6.5 containing 10 mM taurine and 100 mM NaCl.
Developing reagent: 2 mM 3,3′,5,5′-tetramethylbenzidine (TMB), 200 μM KI, 200 mM acetate buffer pH 5.4 with 20% DMF.
To 10 μl of diluted compounds in assay buffer, 40 μl of human MPO (final concentration 2.5 nM), with or without 20 μM tyrosine (final concentration, if present, 8 μM), was added and the mixture was incubated for 10 minutes at ambient temperature. Then 50 μl of H2O2 (final concentration 100 μM), or assay buffer alone as a control, were added. After incubation for 10 minutes at ambient temperature, the reaction was stopped by adding 10 μl 0.2 mg/ml of catalase (final concentration 18 μg/ml). The reaction mixture was left for an additional 5 minutes before 100 μl of TMB developing reagent was added. The amount of oxidised 3,3′,5,5′-tetramethylbenzidine formed was then measured after about 5 minutes using absorbance spectroscopy at about […]. IC50 values were then determined using standard procedures.

In general, IC50 refers to the concentration that gives 50% inhibition. With `CC(C)Cn1c(=S)[nH]c(=O)c2[nH]ccc21` [Example 2, 1-Isobutyl-2-thioxo-1,2,3,5-tetrahydro-pyrrolo[3,2-d]pyrimidin-4-one], the IC50 amounted to 260 nM.

Turning to `CCCOc1cccc(Cn2c(=S)[nH]c(=O)c3[nH]ccc32)c1OCCOC` [Example 5, 1-[2-(2-Methoxyethoxy)-3-propoxybenzyl]-2-thioxo-1,2,3,5-tetrahydro-pyrrolo[3,2-d]pyrimidin-4-one], the IC50 worked out at 220 nM. To `CCOC(C)(C)Cn1c(=S)[nH]c(=O)c2[nH]ccc21` [Example 11, 1-(2-Ethoxy-2-methylpropyl)-2-thioxo-1,2,3,5-tetrahydro-pyrrolo[3,2-d]pyrimidin-4-one] belongs 1100 nM.

These data come from patent publication US9580429B2, “Pyrrolo[3,2-D]pyrimidin-4-one derivatives and their use in therapy” (ASTRAZENECA AB, priority 2004, dated 2017).
